Assays:
[1] = test system: U87-MG cells; test: Alamar Blue cell proliferation; assay type: cell-based, human; conditions: 24 h
Method: (§1) FIG. 6A is a series of graphs illustrating the effect of CP9 on cell proliferation determined by an Alamar Blue assay. The indicated cancer cell lines were treated with different concentrations of CP9 for 24 h prior to incubation with Alamar blue for 4 h. The Hsp90 inhibitors PU-H71 and 17AAG were used as positive controls. Emissions at 570 nm in CP9-treated cells were normalized to that of carrier control-treated cells. Results are expressed as normalized cell proliferation±S.E.M.
(§2) CP9 had no effect on proliferation of normal MEFs. Since CP9 led to decrease in phosphorylated Akt (FIGS. 5A and 10A-10C), it was expected to inhibit glucose metabolism through relief of inhibition of glycogen synthase kinase […] (Nair & Olanow (2008) J. Biol. Chem. M707238200; Dandekar et al., (2007) J. Nucl. Med. 48: 602-607).

[2] = test system: 1975 cells; test: Alamar Blue cell proliferation; assay type: cell-based; conditions: 1975, 24 h
Method: as §1, §2

[3] = test system: normal MEFs; test: Alamar Blue cell proliferation; assay type: cell-based, mouse
Text: as §2

[4] = test system: normal MEF cells; test: 3H-FDG cell uptake (glucose metabolism); assay type: cell-based, mouse; conditions: 24 h post treatment
Method: FIG. 6B is a graph illustrating the effect of CP9 on glucose metabolism determined in 1975 lung cancer, 2008 ovarian cancer and HT29 colon cancer cells by ^3H-FDG cell uptake studies 24 h post treatment. Normal MEFs were used as a control. Results were expressed as mean counts/μg protein/initial dose±S.E.M. *, p<0.05 vs. carrier control treated cells.
To determine the specificity of CP9 in inhibition of glucose metabolism, normal MEF cells were used as a control.
To determine the downstream effects of lead compounds on glucose metabolism, 1.5×10^5 293T, 1975 and 2008 and MEFs cells plated in 24-well plate for 24 h, prior to treatment with different concentrations of CP9 for 24 or 48 h and subsequent incubation with 1 μCi of ^3H-FDG in 500 μl of medium for 1 h at 37° C. Cells treated with 2.5 μM of PU-H71 served as a positive control. The total counts in each sample were normalized to that of the dose added to each well and to the amount of protein, and expressed as mean counts/dose/μg protein±S.E.M. Likewise, the effect of CP9 on cell proliferation was determined using 1 μCi of ^3H-FLT per well after 2 h of incubation at 37° C.

[5] = test system: 293T Hsp90(α/β)/p23-FG xenografts; test: 18F-FDG small animal PET/CT of tumor glucose metabolism; assay type: in vivo, mice
Method: FIG. 8B is a graph illustrating quantitation of the effect of CP9 on inhibition of glucose metabolism. The PET image of each mouse and each site at each time point was reconstructed and quantified using the OSEM 2D algorithm. The increase in max % ID/g at 43 h relative to 0 hr is shown as average±S.E.M. CP9 led to significant decrease in glucose metabolism, compared to carrier control treated mice (p<0.005).
^18F-FDG PET/CT has been used for repetitive and non-invasive monitoring of chemotherapy responses both in small animals and in humans (Aliaga et al., (2007) Mol. Imaging. Biol. 9: 144-150; de Geus-Oei et al., (2009) J. Nucl. Med. 50(Suppl 1): 43S-54S). Since CP9 inhibits glucose metabolism in cancer cells (FIG. 6B), its effect in the same cohort of living mice used for BLI (FIGS. 7A-7C) was monitored by small animal PET/CT imaging using ^18F-FDG. […] Baseline ^18F-FDG uptake in tumor-bearing mice was determined pre-treatment with four doses of carrier control (DMSO) or CP9 (80 mg/kg in DMSO) (FIG. 8A). The % max ID/g of ^18F-FDG uptake was determined by the OSEM2D method upon normalization of injected dose (Wiant et al., (2010) Med. Phys. 37: 1169-1182). The % increase in ^18F-FDG uptake at 43 h relative to 0 h was determined for each tumor site. […]

[6] = test system: pAkt/total Akt and Raf-1; test: Western blotting of client proteins in 293T-FG cells (CP9 analogues); assay type: cell-based, human; conditions: different concentrations
Method: Cells treated with PU-H71 and 17-AAG (2.5 μM) served as positive controls. α-Tubulin was used as the loading control.
To determine if the reduction in IC50 for Hsp90(α/β)/p23 interactions also led to improved efficacy of A17 as an Hsp90 inhibitor, 293T-FG cells were treated with different concentrations of CP9 and A17. PU-H71 and 17AAG were used as positive controls. The expression of pAkt/total Akt and Raf-1 was determined by western blotting. […] Since A17 has a lower logP value (partition coefficient) than CP9 (2.8 versus 4.1), it may be more hydrophilic, have less non-specific binding to serum proteins and thus better bioavailability in tumors.
CP9 (0.3-10 μM), 17-AAG (10 μM) and PU-H71 (5 μM) were used as positive controls in triplicate wells. The efficacy of the analogues in disruption of Hsp90(α/β)/p23 and cell proliferation were monitored by RL imaging (2 h post upon addition of ENDUREN® at 30 μM final concentration) followed by FL imaging (10 mins post addition of D-Luc at 0.225 mg/ml final concentration) using a cooled CCD camera (1 min and 10 sec for RL and FL imaging, respectively). RL signals were normalized to that of FL signals to account for the effect of the analogues on cell proliferation. […] The effect of the CP9 analogues on degradation of Hsp90 client proteins in 293T cells were also monitored by western blotting as described above.

Cc1cc(NC(=O)CSc2nc(-c3cccs3)cc(C(F)(F)F)n2)no1 [CP9, N-(5-methylisoxazol-3-yl)-2-(4-(thiophen-2-yl)-6-(trifluoromethyl)pyrimidin-2-ylthio)acetamide]
inhibition of cell proliferation vs PU-H71 and 17-AAG [1]: more effective than PU-H71 and 17-AAG | inhibition of cell proliferation vs PU-H71 and 17-AAG [2]: more effective than PU-H71 and 17-AAG | proliferation of normal MEFs [3]: no effect | 3H-FDG uptake in MEFs [4]: without significantly affecting | decrease in 18F-FDG uptake in tumors relative to carrier control treated mice ([5]; CP9 treatment, 43 h): 40% | decrease in 18F-FDG uptake in tumors at 43 h relative to 0 h ([5]; four doses CP9 80 mg/kg in DMSO, n=10 tumors, p<0.005 vs carrier control): 16±9% | degradation of pAkt/total Akt and Raf-1 [6]: dose-dependent decreases
